Results published in US20220274980A1, “PHARMACOLOGICAL INHIBITORS OF THE ENL YEATS DOMAIN” (priority 2019, published 2022).
pIC50: −log10 of the molar value. Like-named read-outs stand apart in the source and are kept apart here.

Legend:
ENL(YEATS)-HiBiT [1] = biological target: T1, ENL(YEATS)-HiBiT (Homo sapiens, UniProt Q03111); details: read-out: ENL YEATS CETSA (IC50); Table 2; OCI/AML-2 cells expressing ENL(YEATS)-HiBiT
T1 sequence (Q03111 1-138 limits assumed): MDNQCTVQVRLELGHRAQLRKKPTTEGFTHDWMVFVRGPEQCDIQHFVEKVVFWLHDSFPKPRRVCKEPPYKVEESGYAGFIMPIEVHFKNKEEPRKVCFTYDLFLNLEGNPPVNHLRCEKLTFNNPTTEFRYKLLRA
Protocol: (§3) Cellular thermal shift assay (CETSA). […] Cells were transferred to 384-well (20,000 cells per well in 20 μL) or 1,536-well (3,000 cells per well in 4 μL) plates and drug was transferred using a 100 nL pin tool for 384-well plates or acoustic transfer (Labcyte, Echo Liquid Handler) for 1,536-well plates. Luminescent detection of HiBiT was performed by combining an equal volume of Nano-Glo HiBiT Lytic Reagent (Promega, HiBiT Lytic Detection System, Cat. No. N3040) in each well. […] Briefly, cells were treated with drug, washed with PBS, heated to various temperatures in a thermocycler, cooled to room temperature, lysed by three rounds of freeze-thaw, and then clarified lystaes were subjected to immunoblot analysis.

[2] = biological target: T2, ENL YEATS domain (association with H3K27cr) (Homo sapiens, UniProt Q03111); assay: biochemical; details: ENL (YEATS)-H3K27cr HTRF (IC50, μM)
T2 sequence (Q03111 1-148): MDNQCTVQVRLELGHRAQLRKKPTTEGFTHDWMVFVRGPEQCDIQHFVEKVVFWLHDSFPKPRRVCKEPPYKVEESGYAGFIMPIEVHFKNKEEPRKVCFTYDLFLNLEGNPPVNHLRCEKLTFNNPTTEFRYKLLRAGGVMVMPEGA
Protocol: (§1) Protein Production. Double stranded DNA fragments encoding the protein sequence of ENL YEATS(1-148) were synthesized (IDT DNA) for assembly-based cloning into a modified expression vector backbone derived from pET21a (Novagen). The protein was fused to a StrepII-SUMO and 6×His tag on the amino and carboxy terminus, respectively. Transformed BL21(DE3) cells (New England Biolabs) were grown at 37° C. in 2×YT growth medium to an OD600 of 0.6. Protein expression was induced at 25° C. with the addition of isopropyl-β-D-thiogalactopyranoside (IPTG) to a final concentration of 0.4 mM. The culture was harvested by centrifugation following a 20-hour incubation and subsequently purified by immobilized metal affinity chromatography. Cells were resuspended 50 mM Tris-HCl pH 8.0, 300 mM NaCl, 10% glycerol, 10 mM imidazole, 1 mM DTT containing Complete EDTA-free protease inhibitor (Roche) and lysed by two passes through a MicroFluidizer at 10,000 psi. The lysate was clarified by centrifugation at 16,000 rpm for 30 minutes at 4° C. The supernatant was passed over NiNTA agarose (QIAGEN) and the protein was eluted in 50 mM Tris-HCl pH 8.0, 300 mM NaCl, 10% glycerol, 250 mM imidazole, 1 mM DTT. Fractions containing the ENL YEATS(1-148) fusion protein were buffer exchanged into 100 mM Tris-HCl pH 8.0, 150 mM NaCl, 1 mM EDTA, 1 mM DTT using PD10 desalting columns (GE Life Sciences). Ulp1 protease was added to cleave the StrepII-SUMO fusion and the reaction mixture was incubated overnight at 4° C. The cleavage reaction mixture was loaded onto a StrepTrap column (GE Life Sciences) and ENL YEATS(1-148) was recovered in the flow through. BRD4 BD1 was purchased from Cayman (Cat. No. 11720).
(§2) Homogenous time-resolved FRET (HTRF) histone-binding assays. Both HTRF assays were performed by combining recombinant protein and synthetic histone peptide in assay buffer (25 mM HEPES pH 7, 20 mM NaCl, 0.2% Pluronic F-127, and 0.05% BSA) with 1 nM LanthaScreen Eu-anti-His Tag antibody (ThermoFisher, Cat. No, PV5597) and 8.9 nM SureLight allophycocyanin-streptavidin (Perkin Elmer, APC-SA, Cat. No. CR130-100). ENL YEATS was used at 5 nM and BRD4 BD1 was used at 10 nM. ENL assays were performed with H3(13-32)K27cr (13.3 and 100 nM, respectively), custom synthesized at ABclonal (N-terminal biotin, C-terminal amide); BRD4 BD1 assay was performed with 13.3 nM tetra-acetylated H4 (BioVision, Cat. No. 7144-01). Once all reagents were combined (with or without peptide), 10 μL was dispensed per well into black 384-well low-volume plates (Corning, Cat. No. 3821) and drug was added by pin tool transfer (Biomek FX). Assays were incubated for 2 or more hours before measurement of HTRF signal on a PHERAstar plate reader (BMG Labtech; simultaneous dual emission; excitation=337 nm, emission 1=665 nm, emission 2=620 nm). HTRF signal (ratio of emission 1 to emission 2) from vehicle-treated wells (maximum signal) and no-peptide-control wells (minimum signal) were used to calculate percent inhibition for drug-treated wells.

ENL(YEATS)-HiBiT [3] = biological target: T1, ENL(YEATS)-HiBiT; assay: cell-based
Protocol: as §3

BRD4 bromodomain 1 (BD1) = biological target: T3, BRD4 bromodomain 1 (BD1) (Homo sapiens, UniProt O60885); assay: BRD4 (BD1)-H4 tetra-acetylated HTRF histone-binding assay
T3 construct: Selectivity against BRD4 bromodomain 1 (BD1), measured by HTRF; His; purchased Cayman 11720
Protocol: as §1, §2

Structure (SMILES) | pIC50 (ENL(YEATS)-HiBiT [1]) | IC50 ([2]; Table 1) [µM] | IC50 ([2]; Table 2) [µM] | pIC50 (ENL(YEATS)-HiBiT [3]) | pIC50 (BRD4 bromodomain 1 (BD1); Table 1) | pIC50 (BRD4 bromodomain 1 (BD1); Table 2)
O=C(NC1CCCCC1O)c1ccc2nc(-c3ccccc3)cn2c1 (stereo not shown) [Compound 11] | < 4.00 | > 50 | > 50 | < 4.00 | < 4.30 | < 4.30
O=C(NC1Cc2ccccc2C1)c1ccc2nc(-c3ccccc3)cn2c1 [Compound 77] | < 4.30 | > 50 | > 50 | < 4.30 |  | 
O=C(NC1C2CC1C2)c1ccc2nc(-c3ccccc3)cn2c1 (stereo not shown) [Compound 84] | < 4.30 | > 50 | > 50 | < 4.30 |  | 
O=C(NC1(c2ccccc2)CCC1)c1ccc2nc(-c3ccccc3)cn2c1 [Compound 83] | < 4.30 | > 50 | > 50 | < 4.30 |  | 
O=C(N[C@@H]1CC[C@@H]1c1ccccc1)c1ccc2nc(-c3ccccc3)cn2c1 [Compound 115] | < 4.30 | > 50 | > 50 | < 4.30 |  | 
CC1CC(NC(=O)c2ccc3nc(-c4ccccc4)cn3c2)C1 (stereo not shown) [Compound 87] | < 4.30 | 4.6 | 4.6 | < 4.30 |  | 
CC(C)N(C)C(=O)c1ccc2nc(-c3ccccc3)cn2c1 [Compound 8] | < 4.00 | > 50 | > 50 | < 4.00 | < 4.30 | < 4.30
CC(C)C1CC(NC(=O)c2ccc3nc(-c4ccccc4)cn3c2)C1 (stereo not shown) [Compound 119] | < 4.30 | > 50 | > 50 | < 4.30 |  | 
Cc1ccc(C2CCC2NC(=O)c2ccc3nc(-c4ccccc4)cn3c2)c(C)c1 (stereo not shown) [Compound 123] | < 4.30 | > 50 | > 50 | < 4.30 |  | 
CC(C)NC(=O)c1ccc2nc(-c3cccc(C#N)c3)cn2c1 [Compound 18] |  | 4.5 | 4.5 | 4.10 | < 4.30 | < 4.30
CC(C)(C)C1CC(NC(=O)c2ccc3nc(-c4ccccc4)cn3c2)C1 (stereo not shown) [Compound 120] | < 4.30 | > 50 | > 50 | < 4.30 |  | 
CC(C)NC(=O)c1ccc2nc(-c3ccc(OC(F)(F)F)cc3)cn2c1 [Compound 19] | < 4.00 | > 50 | > 50 | < 4.00 | < 4.30 | < 4.30
COc1ccccc1-c1cn2cc(C(=O)NC(C)C)ccc2n1 [Compound 10] | < 4.00 | > 50 | > 50 | < 4.00 | < 4.30 | < 4.30
CN(C(=O)c1ccc2nc(-c3ccccc3)cn2c1)C1CCC1 [Compound 81] | < 4.30 | > 50 | > 50 | < 4.30 |  | 
CC(C)NC(=O)c1ccc2nc(-c3ccccc3C(F)(F)F)cn2c1 [Compound 6] | < 4.00 | > 50 | > 50 | < 4.00 | < 4.30 | < 4.30
COc1cccc(-c2cn3cc(C(=O)NC(C)C)ccc3n2)c1 [Compound 20] |  | 24 | 24 | 4.10 | < 4.30 | < 4.30
